From patent US9695155B2, “Herbicidal substituted pyrimidinyloxy benzene compounds” (E. I. DU PONT DE NEMOURS AND COMPANY, priority 2013, dated 2017)

Assays:
corn = test: Test C postemergence; assay type: in vivo, Zea mays; details: for Corn plant response rating / Plant response rating, Corn: scale 0 to 100 (0 no effect, 100 complete control)
Method in brief: (§1)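 Visual injury score versus untreated controls, 0 = no effect, 100 = complete control, taken 13 to 15 days after treatment in the greenhouse. Pre-emergence pots held loam/sand; post-emergence plants grew in sphagnum peat/vermiculite mix and were sprayed at the 1- to 4-leaf stage.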

chickweed = test: Test C postemergence; assay type: in vivo, Stellaria media; details: for Chickweed plant response rating / Plant response rating, Chickweed: scale 0 to 100 (0 no effect, 100 complete control)
Method in brief: as §1

barnyardgrass [1] = test: Test B flooded paddy test; assay type: in vivo, Echinochloa crus-galli; details: Flood, 250 g ai/ha; 0 to 100 scale where 0 is no effect and 100 is complete control
Method in brief: (§2)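 2-leaf stage plants; pots flooded to 3 cm, compound added to paddy water, depth maintained. Greenhouse 13–15 d. Visual rating vs untreated controls, 0 (no effect) to 100 (complete control); dash = no result.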

large (Lg) crabgrass [2] = test: Test C preemergence; assay type: in vivo, Digitaria sanguinalis; details: for Crabgrass, Large plant response rating: preemergence; for Plant response rating, Crabgrass, Large: Preemergence, 31 g ai/ha, scale 0 to 100, 0 no effect, 100 complete control
Method in brief: as §1

large (Lg) crabgrass [3] = test: Test C postemergence; assay type: in vivo, Digitaria sanguinalis; details: for Crabgrass, Large plant response rating / Plant response rating, Crabgrass, Large: scale 0 to 100 (0 no effect, 100 complete control)
Method in brief: as §1

waterhemp = test: Test C postemergence; assay type: in vivo, Amaranthus rudis
Method in brief: as §1

giant foxtail = test: Test C postemergence; assay type: in vivo, Setaria faberii; details: for Foxtail, Giant plant response rating / Plant response rating, Foxtail, Giant: scale 0 to 100 (0 no effect, 100 complete control)
Method in brief: as §1

pigweed = test: Test C preemergence; assay type: in vivo, Amaranthus retroflexus; details: for Pigweed plant response rating: preemergence
Method in brief: as §1

barnyardgrass [4] = test: Test C postemergence; assay type: in vivo, Echinochloa crus-galli; details: for Barnyardgrass plant response rating / Plant response rating, Barnyardgrass: scale 0 to 100 (0 no effect, 100 complete control)
Method in brief: as §1

sedge, umbrella = test: Test B flooded paddy test; assay type: in vivo, Cyperus difformis; details: Flood, 250 g ai/ha; 0 to 100 scale where 0 is no effect and 100 is complete control
Method in brief: as §2

lambsquarters = test: Test C postemergence; assay type: in vivo, Chenopodium album
Method in brief: as §1

wheat, winter = test: Test C postemergence; assay type: in vivo, Triticum aestivum
Method in brief: as §1

[5] = 16 g ai/ha, postemergence, visual rating, 13 to 15 days
[6] = Postemergence, 31 g ai/ha, 13 to 15 days
[7] = 16 g ai/ha, scale 0 to 100 (0 no effect, 100 complete control)
[8] = 62 g ai/ha, scale 0 (no effect) to 100 (complete control)
[9] = 125 g ai/ha, scale 0 (no effect) to 100 (complete control)
[10] = Postemergence, 31 g ai/ha, scale 0 to 100 (0 no effect, 100 complete control), 13 to 15 days
[11] = Postemergence, 62 g ai/ha, scale 0 to 100 (0 no effect, 100 complete control)
[12] = 16 g ai/ha, postemergence, 0 is no effect, 100 is complete control
[13] = 31 g ai/ha, postemergence, visual rating, 13 to 15 days
[14] = 125 g ai/ha, postemergence, visual rating
[15] = 31 g ai/ha, postemergence, visual rating, scale 0 to 100 (0 no effect, 100 complete control), 13 to 15 days
[16] = 125 g ai/ha, postemergence, visual rating, scale 0 to 100 (0 no effect, 100 complete control)

SMILES: N#Cc1cccc(Oc2ncc(F)cn2)c1-n1cc(I)cn1 [Compound 86]
- Corn plant response rating (corn; [5]): 5
- Plant response rating (0 to 100), Corn (corn; 125 g ai/ha, postemergence): 10
- Plant response rating, Corn (corn; [6]): 5
- Plant response rating, Corn (corn; Postemergence, 62 g ai/ha): 5
- Chickweed plant response rating (chickweed; [5]): 40
- Plant response rating (0 to 100), Chickweed (chickweed; 125 g ai/ha, postemergence): 80
- Plant response rating, Chickweed (chickweed; [6]): 55
- Plant response rating, Chickweed (chickweed; Postemergence, 62 g ai/ha): 60
- Plant response rating, Barnyardgrass (barnyardgrass [1]): 0
- Crabgrass, Large plant response rating (large (Lg) crabgrass [2]; [7]): 85
- Crabgrass, Large plant response rating (large (Lg) crabgrass [2]; [8]): 100
- Crabgrass, Large plant response rating (large (Lg) crabgrass [2]; [9]): 100
- Plant response rating, Crabgrass, Large (large (Lg) crabgrass [2]): 100
- Crabgrass, Large plant response rating (large (Lg) crabgrass [3]; [5]): 5
- Plant response rating (0 to 100), Crabgrass, Large (large (Lg) crabgrass [3]; 125 g ai/ha, postemergence): 5
- Plant response rating, Crabgrass, Large (large (Lg) crabgrass [3]; [6]): 5
- Plant response rating, Crabgrass, Large (large (Lg) crabgrass [3]; Postemergence, 62 g ai/ha): 5
- Plant response rating (0 to 100), Waterhemp (waterhemp; 125 g ai/ha, postemergence): 75
- Plant response rating, Waterhemp (waterhemp; [10]): 70
- Plant response rating, Waterhemp (waterhemp; [11]): 60
- Foxtail, Giant plant response rating (giant foxtail; [5]): 5
- Plant response rating (0 to 100), Foxtail, Giant (giant foxtail; 125 g ai/ha, postemergence): 25
- Plant response rating, Foxtail, Giant (giant foxtail; [6]): 5
- Plant response rating, Foxtail, Giant (giant foxtail; Postemergence, 62 g ai/ha): 15
- Pigweed plant response rating (pigweed; [7]): 90
- Pigweed plant response rating (pigweed; [8]): 100
- Pigweed plant response rating (pigweed; [9]): 100
- Plant response rating, Pigweed (pigweed; Preemergence, 31 g ai/ha, scale 0 to 100, 0 no effect, 100 complete control): 100
- Barnyardgrass plant response rating (barnyardgrass [4]; [5]): 0
- Plant response rating (0 to 100), Barnyardgrass (barnyardgrass [4]; 125 g ai/ha, postemergence): 5
- Plant response rating, Barnyardgrass (barnyardgrass [4]; [6]): 5
- Plant response rating, Barnyardgrass (barnyardgrass [4]; Postemergence, 62 g ai/ha): 5
- Plant response rating, Sedge, Umbrella (sedge, umbrella): 65
- Plant response rating (0 to 100), Lambsquarters (lambsquarters; 125 g ai/ha, postemergence): 85
- Plant response rating, Lambsquarters (lambsquarters; [10]): 45
- Plant response rating, Lambsquarters (lambsquarters; [11]): 65
- Plant response rating (0 to 100), Wheat (wheat, winter; 125 g ai/ha, postemergence): 0
- Plant response rating, Wheat (wheat, winter; [10]): 0
- Plant response rating, Wheat (wheat, winter; [11]): 0

SMILES: CCCOc1cnn(-c2c(C#N)cccc2Oc2ncc(Cl)cn2)c1 [Compound 150]
- Plant response rating (0 to 100), Corn (corn; [12]): 5
- Corn plant response rating (corn; [13]): 10
- Plant response rating, Corn (corn; [14]): 10
- Plant response rating, Corn (corn; Postemergence, 62 g ai/ha): 10
- Plant response rating (0 to 100), Chickweed (chickweed; [12]): 50
- Chickweed plant response rating (chickweed; [13]): 65
- Plant response rating, Chickweed (chickweed; [14]): 70
- Plant response rating, Chickweed (chickweed; Postemergence, 62 g ai/ha): 65
- Plant response rating, Barnyardgrass (barnyardgrass [1]): 0
- Crabgrass, Large plant response rating (large (Lg) crabgrass [2]; [7]): 70
- Crabgrass, Large plant response rating (large (Lg) crabgrass [2]; [8]): 100
- Crabgrass, Large plant response rating (large (Lg) crabgrass [2]; [9]): 100
- Plant response rating, Crabgrass, Large (large (Lg) crabgrass [2]): 98
- Plant response rating (0 to 100), Crabgrass, Large (large (Lg) crabgrass [3]; [12]): 5
- Crabgrass, Large plant response rating (large (Lg) crabgrass [3]; [13]): 5
- Plant response rating, Crabgrass, Large (large (Lg) crabgrass [3]; [14]): 10
- Plant response rating, Crabgrass, Large (large (Lg) crabgrass [3]; Postemergence, 62 g ai/ha): 5
- Plant response rating (0 to 100), Waterhemp (waterhemp; [12]): 35
- Waterhemp plant response rating (waterhemp; [15]): 35
- Plant response rating, Waterhemp (waterhemp; [16]): 65
- Plant response rating, Waterhemp (waterhemp; [11]): 35
- Plant response rating (0 to 100), Foxtail, Giant (giant foxtail; [12]): 5
- Foxtail, Giant plant response rating (giant foxtail; [13]): 20
- Plant response rating, Foxtail, Giant (giant foxtail; [14]): 25
- Plant response rating, Foxtail, Giant (giant foxtail; Postemergence, 62 g ai/ha): 20
- Pigweed plant response rating (pigweed; [7]): 55
- Pigweed plant response rating (pigweed; [8]): 100
- Pigweed plant response rating (pigweed; [9]): 100
- Plant response rating (0 to 100), Barnyardgrass (barnyardgrass [4]; [12]): 5
- Barnyardgrass plant response rating (barnyardgrass [4]; [13]): 5
- Plant response rating, Barnyardgrass (barnyardgrass [4]; [14]): 5
- Plant response rating, Barnyardgrass (barnyardgrass [4]; Postemergence, 62 g ai/ha): 5
- Plant response rating, Sedge, Umbrella (sedge, umbrella): 85
- Plant response rating (0 to 100), Lambsquarters (lambsquarters; [12]): 10
- Lambsquarters plant response rating (lambsquarters; [15]): 30
- Plant response rating, Lambsquarters (lambsquarters; [16]): 80
- Plant response rating, Lambsquarters (lambsquarters; [11]): 35
- Plant response rating (0 to 100), Wheat (wheat, winter; [12]): 5
- Wheat plant response rating (wheat, winter; [15]): 5
- Plant response rating, Wheat (wheat, winter; [16]): 25
- Plant response rating, Wheat (wheat, winter; [11]): 5
